Entries after “also recorded” stand apart in the source; their conditions may differ. Square brackets hold non-standard residues; d marks the D form. Peptide text beside a SMILES is read from it. Dmt = Cc1cc(O)cc(C)c1C[C@H](N)C(=O)O
How the values were obtained:
[1] = test system: cells in culture; conditions: similar studies, cell line not stated
[2] = test system: Caco-2 cells; test: Cell viability, MTT assay, Caco-2 cells; format: cell-based; conditions: 1 nM to 10 μM, 24 h
[3] = test system: Caco-2 cells; test: Assay for peptide uptake in Caco-2 cells; format: cell-based
Excerpt: Assay for Peptide Uptake.

[4] = test system: peptidase; conditions: Szeto et al., J. Pharmacol. Exp. Ther., 2001; cited from earlier work
[5] = test system: Huh7 cells; test: GFP uptake into cells on co-incubation with peptide or peptide-SMCC conjugate; format: cell-based; conditions: 3 μg GFP + 40 μl peptide, 60 min at 37° C., then 24 hours; versus GFP alone
Protocol: Carrier complex formation by physical mixing of protein and [Dmt1]DALDA-SMCC conjugate. The [Dmt^1]DALDA-SMCC conjugate was prepared as described above. The protein molecules (i.e. green fluorescent protein, GFP) were mixed with the [Dmt^1]DALDA-SMCC conjugate for 15 min at room temperature before use in cellular uptake studies.
Assay for protein uptake into cells when co-incubated with [Dmt1]DALDA-SMCC conjugate. […] 2 ml of cell medium was then added to cells which were incubated for an additional 24 hours in the cell culture incubator. After incubation, cells were washed four times in cell medium and GFP retained in living cells was visualized, by confocal laser scanning microscopy. Excitation was performed at 340 nm and emission was measured at 520 nm.
2 ml of cell medium was then added to cells and incubated for an additional 24 hours in cell culture incubator. After incubation, cells were washed four times in cell medium and GFP retained in living cells was visualized by confocal laser scanning microscopy. Excitation was performed at […] and emission was measured at […].

[6] = test system: cell surface receptors, membranes prepared from Caco-2 cells; test: Radioligand binding assay using Caco-2 cell membranes; conditions: 15-960 pM radioligand, 60 min at 25° C.; listed as [^3H][Dmt^1]DALDA
Protocol: Radioligand Binding Assay Using Cell Membranes. […] After 4 days of culture, cells were washed two times with PBS buffer and then scraped off. Cells were centrifuged at 500 g for 5 min and the pellet stored at −80° C. Cells were homogenized in ice-cold 50 mM Tris-HCl buffer (5 μg/ml leupeptin, 2 μg/ml chymostatin, 10 μg/ml bestatin, and 1 mM EGTA, pH 7.4). The homogenate was centrifuged at 36,000 g for 20 min. The pellets were resuspended with 50 mM Tris-HCl buffer. […] Free radioligand was separated from bound radioligand by rapid filtration through GF/B filters (Whatman, Maidstone, UK) with a cell harvester (Brandel Inc., Gaithersburg, Md.). Filters were washed three times with 10 ml of Tris buffer, and radioactivity was determined by liquid scintillation counting. Binding affinities (Kd) and receptor number (Bmax) were determined using nonlinear regression (GraphPad Software, San Diego, Calif.).

[7] = test system: SH-SY5Y cells; test: Cell viability, MTT assay, SH-SY5Y cells; format: cell-based; conditions: 1 nM to 10 μM, 24 h
[8] = Peptide translocation across Caco-2 monolayers (Transwell, apical-to-basolateral); format: in vitro ADME; conditions: human, Caco-2; apical-to-basolateral; read-out: apparent permeability coefficient
Protocol: (§1) Assay for Peptide Translocation across Caco-2 Monolayers. Monolayers of Caco-2 cells were prepared as described previously (Irie et al., J. Pharmacol. Exp. Ther. 2001, 298: 711-717), Caco-2 cells (2×10^5) were seeded on microporous membrane filters (24 mm, […]) inside Transwell cell culture chambers (Corning Glassworks, Corning, N.Y.). Each Transwell chamber was filled with 1.5 ml of medium in the apical compartment and 2.5 ml in the basolateral compartment. The cell monolayers were given fresh medium every 1 to 2 days and were used on day 28 for transport experiments.
(§2) The apparent permeability coefficient was calculated according to the following equation: Papp=X/(t·A·Co), where X/t is the rate of uptake in the receiver compartment, A is the diffusion area (4.72 cm^2), and Co is the initial concentration in the donor compartment.

[9] = test system: Caco-2 monolayer; test: as above; format: in vitro ADME; conditions: 60 min
Protocol: as §1, §2

[10] = test system: N2A cells; test: Cell viability, MTT assay, N2A cells; format: cell-based; conditions: 1 nM to 10 μM, 24 h
[11] = test system: Caco-2, SH-SY5Y, HEK293, and CRFK cells; conditions: 250 nM, 1 h at 37° C., acid-wash
Protocol: Assay for Peptide Uptake. […] Monolayers of cells were grown on 12-well plates (5×10^5 cells/well) coated with collagen for 3 days. […] At the end of the incubation period, cells were washed four times with HBSS, and 0.2 ml of 0.1 N NaOH with 1% SDS was added to each well. The cell contents were then transferred to scintillation vials and radioactivity was counted. […] Before cell lysis, cells were incubated. with 0.2 ml of 0.2 M acetic acid/0.05 M NaCl for 5 min on ice.
An acid-wash step was included to distinguish internalized radioactivity (acid-resistant) from surface-bound radioactivity (acid-sensitive).

[12] = test system: Caco-2 cells; test: Assay for peptide efflux from Caco-2 cells; format: cell-based
Protocol: Assay for Peptide Efflux from CaCo-2 Cells. […] Cells were then washed four times with 1 ml of ice-cold incubation solution to terminate uptake and then incubated with 0.5 ml of MEM for 1 h at either 37 or 4° C. to measure the efflux of peptide from cells to the incubation medium. The amount of radioactivity was determined in cell lysates and in the incubation medium.

[13] = test system: Huh7 cells; test: Cell viability by trypan blue uptake; format: cell-based; conditions: 50 μl of 1 mM conjugate in 1 ml medium, 24 hours at 37° C.
Protocol: Trypan blue is only taken by cells with increased membrane permeability. Huh7 cells (1×10^6) were washed three times in DMEM, and 1 ml of fresh medium, or media containing 50 μl of 1 mM [Dmt^1]DALDA-SMCC conjugate, [D-Arg-Dmt-Lys-Phe-NH2]-SMCC conjugate, or [Phe^1]DALDA-SMCC conjugate, and incubated at 37° C. for 24 hours at 5% CO2. Cells were then washed three times with DMEM, and 1 ml of 0.4% trypan blue was added to the cells for 2 minutes. Excessive dye was removed by washing cells in cell medium and the cells were examined by light microscopy.

[14] = test system: Huh7 cells; test: RNA uptake into cells when mixed with peptide-SMCC conjugate; format: cell-based; conditions: for increase of uptake of RNA oligo on co-incubation: 11-base RNA oligo
Protocol: Carrier complex formation by physical mixing of RNA and [Dmt^1]DALDA-SMCC conjugate. The [Dmt^1]DALDA-SMCC conjugate was prepared as described above. The RNA molecules were mixed with the [Dmt^1]DALDA-SMCC conjugate in PBS for 15 min at room temperature before use in cellular uptake studies.
Assay for uptake of RNA uptake into cells when mixed with [Dmt1]DALDA-cross-linker conjugate. Huh7 cells (1×10^6 cells/well) were washed with DMEM and then incubated with 1.0 ml DMEM containing [^32P]RNA oligo alone or with 40 μl [Dmt^1]DALDA-SMCC conjugate, for 60 min at 37° C. or 4° C. Cells were then washed four times in DMEM and one time in sodium acetate solution to reduce nonspecific binding before incubated in lysis buffer for 30 min and radioactivity determined in the cell lysate.
The carrier complex was formed by physical mixing of RNA and [Dmt^1]DALDA-SMCC conjugate. […] A single strand 11-mer [^32P]RNA oligo was mixed with the [Dmt^1]DALDA-SMCC conjugate for 15 min at room temperature before use in cellular uptake studies.
Huh7 cells (1×10^6 cells/well) were washed with DMEM and then incubated with 1.0 ml DMEM containing the [^32P]RNA oligo (100,000 cpm) alone or with […] [Dmt^1]DALDA-SMCC conjugate at 37° C. or 4° C. Cells were then washed four times in DMEM and one time in sodium acetate solution to remove nonspecific binding before incubated in lysis buffer for 30 min and retained radioactivity determined.

[15] = test system: Huh7 cells; test: Assay of apoptosis (Hoechst dye); format: cell-based; conditions: 50 μl of 1 mM conjugate, 24 hours at 37° C., versus PBS control
Protocol: Assay of apoptosis. Apoptosis was determined with the use of Hoechst dye (Molecular Probes, Eugene, Oreg.) for staining apoptotic nuclei. The Hoechst dye was loaded to cell cultures and incubated for 15 min. Excessive Hoechst dye was removed by washing cells with cell medium. (free of pH indicator) the cells examined using fluorescent microscopy (excitation at 350 nm and emission at 461 nm).
After the incubation, 1 ml of Hoechst dye (Molecular Probes, Eugene, Oreg.) for staining apoptotic nuclei were added to cells and incubated for additional 15 min. Excessive Hoechst dye was removed by washing cells with cell medium (free of pH indicator) and cells treated with [Dmt^1]DALDA-SMCC conjugate were compared with control cells using fluorescent microscopy (excitation at 350 nm and emission at […]). Apoptosis is indicated by concentration of fluorescence in the nuclei.

Cc1cc(O)cc(C)c1C[C@H](NC(=O)[C@H](N)CCCNC(=N)N)C(=O)N[C@@H](CCCCN)C(=O)N[C@@H](Cc1ccccc1)C(N)=O [[D-Arg-Dmt-Lys-Phe-NH2], D-Arg-2′6′Dmt-Lys-Phe-NH2] (H-[dR][Dmt]KF-NH2)
toxicity to cells / cell viability [1]: no effect on cell viability

Cc1cc(O)cc(C)c1C[C@H](N)C(=O)N[C@H](CCCNC(=N)N)C(=O)N[C@@H](Cc1ccccc1)C(=O)N[C@@H](CCCCN)C(N)=O [[Dmt^1]DALDA, 2′,6-Dmt-D-Arg-Phe-Lys-NH2]
cell viability (MTT assay) [2]: no effect on cell viability
concentration dependence of uptake ([3]; 1 μM-3 mM, 1 h at 37° C.): concentration-dependent over a wide range of concentrations
effect of verapamil (P-glycoprotein inhibitor) on cellular uptake ([3]; 100 μM verapamil): no effect
increase of uptake by DEPC ([3]; 0.2 mM DEPC): 34 fold
effect of 4° C. on uptake ([3]; 4° C. versus 37° C.): slower compared with 37 °C
uptake at 4° C. by 45 min ([3]; 4° C., 45 min, compared with 37° C.): 76.5%
uptake at 4° C. by 1 h ([3]; 4° C., 1 h, compared with 37° C.): 86,3%
time at which peptide was first observed in cell lysate ([3]; 37° C., 250 nM): 5 min
fraction resistant to acid-wash (presumed inside the cell) ([3]; 1 h at 37° C., acid-wash before lysis): 80.8%
total amount recovered in cell lysate, of the total drug ([3]; after 1-h incubation, 37° C.): about 1%
effect of pH on uptake ([3]; pH varied from 4.0 to 7.4, 1 h at 37° C.): unchanged
resistance against peptidase degradation [4]: resistant against peptidase degradation
uptake of GFP into cells (green fluorescence) [5]: moderately increased green fluorescence within the cell cytoplasm
specific binding to Caco-2 membranes [6]: No high-affinity specific binding was observed
cell viability (MTT assay) [7]: no effect on cell viability
Papp A→B at 0.2 μM [8]: 12.4 ×10⁻⁶ cm/s
percentage translocated from the apical to the basolateral side [9]: 10.4%
cell viability (MTT assay) [10]: no effect on cell viability; also recorded: not toxic to cells in culture
internalization (acid-resistant radioactivity) in different cell lines [11]: taken up extensively in all cell types
effect of verapamil (P-glycoprotein inhibitor) on efflux ([12]; 100 μM verapamil): not affected
effect of DEPC on efflux ([12]; 0.2 mM DEPC, 10 min at 25° C. before loading): decreased
effect of temperature (4° C.) on efflux ([12]; 4° C. versus 37° C.): temperature had a significant effect
peptide effluxed into medium ([12]; preloaded 1 h, 1 h efflux at 37° C.): 80%

Cc1cc(O)cc(C)c1C[C@H](N)C(=O)N[C@H](CCCNC(=N)N)C(=O)N[C@@H](Cc1ccccc1)C(=O)N[C@@H](CCCCNC(=O)C1CCC(CN2C(=O)C=CC2=O)CC1)C(N)=O (stereo partly drawn) [[Dmt^1]DALDA-SMCC conjugate]
trypan blue uptake (cell viability) [13]: No increase in trypan blue uptake
uptake of GFP into cells (green fluorescence) [5]: even greater uptake of GFP; also recorded: enhances uptake of green fluorescent protein
increase of uptake of RNA oligo on co-incubation ([14]; 15 min at 37° C.): 10 fold
increase of uptake of RNA oligo on co-incubation ([14]; 60 min at 37° C.): ~20 fold
increase of uptake of 11-mer RNA on co-incubation ([14]; FIG. 13 experiment, 60 min at 37° C.): 22 fold
apoptosis (Hoechst staining of nuclei) [15]: did not induce apoptosis; also recorded: does not induce apoptosis
